Experiments:
[1] = system: graft versus host disease (GVHD) model mice
Source text: Referring to FIG. 2A, 5-week-old BALB/c male mice were acclimatized for 1 week, irradiated with 800 cGy radiation throughout the body, and then injected with 5×10^6 C57BL/6J-derived bone marrow cells and 1×10^7 splenocytes derived therefrom via IV injection, thereby constructing a GVHD in vivo model (positive control group, Positive). The syngeneic control group (Syngeneic) was constructed in the same manner as above while BALB/c-derived bone marrow cells were selected as the bone marrow cells to be injected.
The fursultiamine administration group (Fur50) was constructed by daily oral gavage of fursultiamine HCl at 50 mg/kg to the GVHD in vivo model.
The treatment effect of fursultiamine was investigated on the constructed experimental groups by measuring the change in weight every 3 days.
On Day 14, the comparison between the amounts of generation of CD4+ T cells and CD4+IFNg+ T cells, which are major factors causing GVHD, was performed in the spleens isolated from the mice.
On Day 14 of inducing the GVHD in vivo model, liver and large intestine tissues were extracted from the mice, fixed in 4% paraformaldehyde for 48 hours, and then embedded in paraffin. The resultant tissues were sliced into 5 μm sections and then subjected to hematoxylin and eosin (H&E) staining. (bar=100 um)

[2] = system: allo-reactive CD4+IFNg+ T cell generation; test: mixed lymphocyte reaction (GVHD in vitro validation model), flow cytometry; assay type: cell-based, mouse; conditions: for Amount of generation (%) of CD4+IFNg+ T cells: BALB/c irradiated splenocytes + C57BL6/J CD4+ T cells, 5 days, positive control 37.4, syngeneic control 15.3
Source text: A high amount of CD4+IFNg+ T cell generated can be inferred to allow the proliferation of T cells against allogenic antigens, thereby attacking the body organs of a patient. Therefore, a graft versus host disease (GVHD) in vitro validation model was subjected to a mixed lymphocyte reaction to compare the degree of allo-reactive CD4+IFNg+ T cell generation among thiamine derivatives by flow cytometry.
Specifically, BALB/c mice were sacrificed by cervical dislocation, and then the spleens were extracted, followed by erythrocyte lysis using ACK lysing buffer. Thereafter, the isolated spleen cells were irradiated at 2500 cGy.
The positive group was treated with 10, 50, and 100 uM benfotiamine, 1, 5, and 10 uM allithiamine, and 10, 50, and 100 uM fursultiamine to prepare experimental groups.
Thereafter, the cells were cultured in RPMI1640 (10% FBS, 1% penicillin streptomycin) at 37° C. for 5 days, and the cells were separated, followed by flow cytometry, to investigate the degree of CD4+IFNg+ T cell generation.

[3] = spleen, Day 14, 50 mg/kg daily oral, in words

Row | SMILES | infiltration of immune cells in the liver tissue (H&E staining) ([1]; Day 14, 50 mg/kg daily oral, versus positive control group) | degree of infiltration of inflammatory cells into the liver and colon ([1]; GVHD-induced mouse model, summary statement) | change in weight compared with the GVHD in vivo model ([1]; fursultiamine HCl 50 mg/kg daily oral gavage, Day 12 of oral administration) | amount of generation of allogenic CD4+ T cells [1, 3] | amount of generation of allogenic CD4+IFNg+ T cells [1, 3] | Amount of generation of CD4+IFNg+ T cells (%) ([1]; spleen, Day 14, fursultiamine HCl 50 mg/kg daily oral gavage, positive control 18.3, syngeneic control 3.2) | Amount of generation of CD4+ T cells (%) ([1]; spleen, Day 14, fursultiamine HCl 50 mg/kg daily oral gavage, positive control 21.1, syngeneic control 6.9) | Amount of generation (%) of CD4+IFNg+ T cells ([2]; 10 μM) | Amount of generation (%) of CD4+IFNg+ T cells ([2]; 50 μM) | Amount of generation (%) of CD4+IFNg+ T cells ([2]; 100 μM) | degree of generation of CD4+IFNg+ T cells compared with the positive control ([2]; at 50 uM or more, concentration dependent) | Amount of generation (%) of CD4+IFNg+ T cells ([2]; 1 μM) | Amount of generation (%) of CD4+IFNg+ T cells ([2]; 5 μM) | degree of generation of CD4+IFNg+ T cells compared with the positive control ([2]; at 5 uM or more, concentration dependent) | degree of generation of CD4+IFNg+ T cells compared with the positive control ([2]; regardless of the concentration (10, 50, 100 uM))
1 | CC(=C(CCO)SSCC1CCCO1)N(C=O)Cc1cnc(C)nc1N (stereo in doubt) [Fursultiamine, fursultiamine] | reduced | reducing the degree of infiltration | significant recovery | reduced | reduced | 12.6% | 13.4% | 34.9% | 13.6% | 12.5% | significant reduction |  |  |  | 
2 | C=CCSS/C(CCO)=C(/C)N(C=O)Cc1cnc(C)nc1N [Allithiamine, allithiamine] |  |  |  |  |  |  |  | 23.9% |  |  |  | 35.2% | 25.7% | significant reduction | 
3 | C/C(=C(\CCOP(=O)(O)O)SC(=O)c1ccccc1)N(C=O)Cc1cnc(C)nc1N [Benfotiamine, benfotiamine] |  |  |  |  |  |  |  | 36.8% | 43.9% | 40.1% |  |  |  |  | no significant difference

Source: patent US12721848B2, “Pharmaceutical composition for preventing or treating graft versus host disease comprising thiamine derivatives” (Kyungpook National University Industry-Academic Cooperation …, priority 2020, dated 2026)
